Test results as given in patent publication US4434101A, “Inhibitors of SRS-synthesis” (Hoffmann-La Roche Inc., priority 1981, dated 1984).

System: SRS-A synthesis in rat peritoneal cells
Test: Inhibition of the In Vitro Synthesis of SRS-A in Rat Peritoneal Cells
Assay type: cell-based, rat (male Sprague-Dawley)
Settings: for inhibition at 10 µM: mean percent inhibition of ionophore A23187-induced SRS-A synthesis, 10 min preincubation at 37° C., p<0.001, SRS-A quantitated by guinea pig ileum bioassay, read-out: % Inhibition at 10μ M; for IC50: from plot of mean percent inhibition versus drug concentration, ionophore A23187-induced SRS-A synthesis
Source text: Inhibition of the In Vitro Synthesis of SRS-A in Rat Peritoneal Cells
To study the effect of drugs on SRS-A synthesis in rat peritoneal cells, these cells (including mast cells, monocytes, eosinophils and neutrophils)were isolated from male Sprague-Dawley rats (Charles River Laboratories) weighing 180-220 g by the lavage procedure described by Herzig, D. G. and Dusner, E. J. Journal of Pharmacology and Experimental Therapeutics, 194, 457-460 (1975) with the exception that Hanks balanced salt solution used in these experiments was adjusted to pH 6.9 with 5% (V/V) of 0.1 M aqueous phosphate buffer and contained 50 mg/ml sodium heparin. After removal from the peritoneal cavity of rats, the cells were subsequently isolated by centrifugation at 400×gravity for 10 minutes at 4° C. and resuspended to a concentration of about 2,000,000 cells per ml in Hanks buffer.
Samples for evaluation were prepared by adding various concentrations of test drugs to 2 ml aliquots of the resuspended cells in Hanks buffer. The 2 ml samples used for control contained 2 ml aliquots of resuspended cells in Hanks buffer without drugs. All of the above samples (2 ml final volume) were preincubated at 37° C. for 10 minutes in the presence of varying concentrations of test drug prior to challenge with […] ionophore A23187. This ionophore is disclosed in Burka and Flower, Br. J. Pharmacology 65: 35-41 (1979). Antibiotic A23187 was used as a probe for the study of calcium and function in biological systems. After ionophore challenge, SRS-A was synthesized in the samples by the cells for 10 minutes (at 37° C.) after which this synthesis was terminated by placing the samples in a boiling water bath for 10 minutes followed by centrifugation at 2,000×g (10 minutes) at 4° C. to remove coagulated protein and cellular debris. The SRS-A present in the resulting supernatants was quantitated by a bioassay using a guinea pig ileum as described in Orange, and Austen, Adv. Immunol, 10: 105-144 (1969). For this bioassay, a 1.5 cm segment of ileum was removed from animals weighing 300 to 400 g and resuspended in an organ bath containing 10 ml of Tyrodes solution with 10^-6 M atropine sulfate and 10^-6 M pyrilamine maleate. The bath was maintained at 37° C. and aereated with a mixture of 95% O2 and 5% CO2. The concentration of SRS-A in the experimental samples was determined by a comparison of isotonic contraction responses elicited by the samples with those obtained with varying amounts of an SRS-A standard solution prepared from chopped guinea pig lung as disclosed in Hitchcock, M. J. Pharmacol. Exp. Ther. 207: 630-640 (1978) and quantitated by the procedures of Orange, R. R. and Austen, K. F. Adv. Immunol. 10: 105-144 (1969) against histamine (1 unit of SRS-A being that amount which gives a contractie response similar to that of […] of histamine). In the absence of drug, the ionophore A23187-induced SRS-A synthesis varied between 40 to 50 units of SRS-A per 10^6 cells. In the presence of increasing concentrations of test drug, there was a concentration-related decrease in SRS-A synthesis.
The mean percent inhibition [formula] at each concentration of the various test drugs was calculated. The concentration of test drug which inhibits the synthesis of SRS-A by 50% (IC50) was determined for each test drug from a plot of the mean percent inhibition versus drug concentration. The difference of units of SRS-A in the test sample used in the fraction given above was obtained by subtracting the units of SRS-A in the control from the actual measurement of the units of SRS-A in the sample.

SMILES: CCCCCCCCCCC/C=C\C(C)(C)/C=C\CCCC(=O)O [(Z,Z)-7,7-dimethyl-5,8-eicosadienoic acid]
- inhibition at 10 µM: 100%
- IC50: < 10 µM

SMILES: CCCCCCCC/C=C\C/C=C\C(C)(C)/C=C\CCCC(=O)O [(all Z)-7,7-dimethyl-5,8,11-eicosatrienoic acid]
- inhibition at 10 µM: 100%
- IC50: < 10 µM

SMILES: CCCCC/C=C\C/C=C\C/C=C\C(C)(C)/C=C\CCCC(=O)O [(all-Z)-7,7-dimethyleicosa-5,8,11,14-tetraenoic acid]
- inhibition at 10 µM: 100%
- IC50: 1 to 3 µM
